# Measured values from ChEMBL document CHEMBL1201862, “PubChem BioAssay data set” (2004).
#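 Protocol summary: plate cells (96-well), add compound at 5 concentrations, incubate 48 h, interpolate endpoints linearly. Abbreviation: GI50, concentration required for 50% inhibition of growth.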 Calls of active or inactive are those of the source. Cut-off read from the data, not from the text of the source: active = GI50 up to about 1.1 µM and inactive = higher.
# Tests used:
# Assay in all cases: NCI-60 cell line screen, 48 h
# [1] = tested on: NCI-H23
# [2] = tested on: OVCAR-5
# [3] = tested on: ACHN
# [4] = tested on: SF-295
# [5] = tested on: SNB-19
# [6] = tested on: MDA-MB-435
# [7] = tested on: A549
# [8] = tested on: RXF 393
# [9] = tested on: 786-0
# [10] = tested on: HOP-62
# [11] = tested on: UACC-62
# [12] = tested on: SF-268
# [13] = tested on: MDA-N
# [14] = tested on: SK-OV-3
# [15] = tested on: BT-549
# [16] = tested on: SN12C
# [17] = tested on: SK-MEL-2
# [18] = tested on: COLO 205
# [19] = tested on: HCT-116
# [20] = tested on: Malme-3M
# [21] = tested on: HCT-15
# [22] = tested on: SF-539
# [23] = tested on: SK-MEL-28
# [24] = tested on: MDA-MB-231
# [25] = tested on: KM12
# [26] = tested on: NCI/ADR-RES
# [27] = tested on: IGROV-1
# [28] = tested on: PC-3
# [29] = tested on: HOP-92
# [30] = tested on: HT-29
# [31] = tested on: SW-620
# [32] = tested on: EKVX
# [33] = tested on: OVCAR-4
# [34] = tested on: NCI-H460
# [35] = tested on: MOLT-4
# [36] = tested on: LOX IMVI
# [37] = tested on: NCI-H226
# [38] = tested on: Hs-578T
# [39] = tested on: OVCAR-8
# [40] = tested on: DU-145
# [41] = tested on: M14
# [42] = tested on: UACC-257
# [43] = tested on: UO-31
# [44] = tested on: HCC 2998
# [45] = tested on: TK-10
# [46] = tested on: NCI-H522
# [47] = tested on: MCF7
# [48] = tested on: CAKI-1
# [49] = tested on: T47D
# [50] = tested on: OVCAR-3
# [51] = tested on: SNB-75
# [52] = tested on: HL-60
# [53] = tested on: A498
# [54] = tested on: RPMI-8226
# [55] = tested on: U-251
smiles,measurement,setting,value
CCCCSC1=N/C(=C\c2ccccc2O)C(Cl)=N1,GI50,[1],> 100 µM (inactive)
same,GI50,[2],> 100 µM (inactive)
same,GI50,[3],> 100 µM (inactive)
same,GI50,[4],> 100 µM (inactive)
same,GI50,[5],> 100 µM (inactive)
same,GI50,[6],> 100 µM (inactive)
same,GI50,[7],> 100 µM (inactive)
same,GI50,[8],> 100 µM (inactive)
same,GI50,[9],> 100 µM (inactive)
same,GI50,[10],> 100 µM (inactive)
same,GI50,[11],> 100 µM (inactive)
same,GI50,[12],> 100 µM (inactive)
same,GI50,[13],> 100 µM (inactive)
same,GI50,[14],> 100 µM (inactive)
same,GI50,[15],> 100 µM (inactive)
same,GI50,[16],> 100 µM (inactive)
same,GI50,[17],> 100 µM (inactive)
same,GI50,[18],> 100 µM (inactive)
same,GI50,[19],> 100 µM (inactive)
same,GI50,[20],> 100 µM (inactive)
same,GI50,[21],> 100 µM
same,GI50,[22],> 100 µM (inactive)
same,GI50,[23],> 100 µM (inactive)
same,GI50,[24],> 100 µM (inactive)
same,GI50,[25],> 100 µM (inactive)
same,GI50,[26],> 100 µM (inactive)
same,GI50,[27],> 100 µM (inactive)
same,GI50,[28],> 100 µM (inactive)
same,GI50,[29],> 100 µM (inactive)
same,GI50,[30],> 100 µM (inactive)
same,GI50,[31],> 100 µM (inactive)
same,GI50,[32],> 100 µM (inactive)
same,GI50,[33],> 100 µM (inactive)
same,GI50,[34],> 100 µM (inactive)
same,GI50,[35],> 100 µM (inactive)
same,GI50,[36],> 100 µM (inactive)
same,GI50,[37],> 100 µM (inactive)
same,GI50,[38],> 100 µM (inactive)
same,GI50,[39],> 100 µM (inactive)
same,GI50,[40],> 100 µM (inactive)
same,GI50,[41],> 100 µM (inactive)
same,GI50,[42],> 100 µM (inactive)
same,GI50,[43],> 100 µM (inactive)
same,GI50,[44],> 100 µM (inactive)
same,GI50,[45],> 100 µM (inactive)
same,GI50,[46],> 100 µM (inactive)
same,GI50,[47],> 100 µM (inactive)
same,GI50,[48],> 100 µM (inactive)
same,GI50,[49],> 100 µM (inactive)
same,GI50,[50],> 100 µM (inactive)
same,GI50,[51],> 100 µM (inactive)
same,GI50,[52],> 100 µM (inactive)
same,GI50,[53],> 100 µM (inactive)
same,GI50,[54],> 100 µM (inactive)
same,GI50,[55],> 100 µM (inactive)
